Data: patent publication US20010002257A1, “Composition comprising a lipoamino acid and the constituents of a tannin-rich plant extract, and cosmetic use thereof” (priority 1997, published 2001)

Legend:
[1] = molecular target: T1, human leukocytic elastase (HLE) (Homo sapiens, UniProt P08246); experiment: Anti-elastase test: hydrolysis of N-methoxysuccinyl-alanine-proline-valine-para-nitroanilide, spectrophotometry at 410 nm; format: biochemical
T1 sequence (P08246 30-267): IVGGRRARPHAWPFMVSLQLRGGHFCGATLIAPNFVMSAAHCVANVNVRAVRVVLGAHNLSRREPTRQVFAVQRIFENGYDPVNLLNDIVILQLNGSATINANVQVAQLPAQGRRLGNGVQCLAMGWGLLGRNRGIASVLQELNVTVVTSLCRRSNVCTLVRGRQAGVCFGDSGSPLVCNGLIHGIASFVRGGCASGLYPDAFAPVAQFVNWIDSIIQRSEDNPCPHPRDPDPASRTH
Procedure: Such a substance can be, for example, N-methoxysuccinyl-alanine-proline-valine-para-nitroanilide, a normally colourless substance which releases, by hydrolysis with human leukocytic elastase, a coloured product, para-nitroaniline, whose appearance kinetics can be monitored by spectrophotometry at 410 nm.
The reaction is carried out in a spectrophotometer thermostatically set at 25° C. and equipped with a sample changer. All of the kinetics are carried out a minimum of three times, the average and the standard deviation then being calculated for the three values obtained.
The presence of a molecule with anti-elastase activity is reflected by a limitation of the appearance of the coloured product and the anti-elastase effect can then be calculated relative to a control curve obtained in the absence or the said molecule.
A correlation thus exists between the percentage of inhibition of the appearance of the coloured product by the test compound and the percentage of inhibition of human leukocytic elastase.

Propionibacterium acnes = experiment: Minimum inhibitory concentration at pH 5 on growth of Propionibacterium acnes; format: cell-based; details: P. acnes, pH 5, product alone
Procedure: (§1) a) The minimum inhibitory concentration, at pH 5, of composition according to the invention on the growth of the strains below was determined:
(§2) b) The minimum inhibitory concentration, at pH 5, on the growth of the same strains for an octanoylglycine+zinc gluconate combination was determined.

Staphylococcus aureus = experiment: Minimum inhibitory concentration at pH 5 on growth of Staphylococcus aureus; format: cell-based; details: Staph. Aureus, pH 5, product alone
Procedure: as §1, §2

Staphylococcus epidermis = experiment: Minimum inhibitory concentration at pH 5 on growth of Staphylococcus epidermis; format: cell-based; details: Staph. Epidermis, pH 5, product alone
Procedure: as §1, §2

lipase = experiment: Anti-lipase test: titration of free fatty acids formed from triglycerides; format: biochemical
Procedure: The test involves assaying the free fatty acids obtained by degradation of the triglycerides with lipase. A known amount of triglycerides (“Lipase Substrate” sold by the company Sigma), a known amount of lipase (“Enzyme Control 2E” sold by the company Sigma) and the test composition are placed together in a tube. After an incubation period of three hours at 37° C., the enzymatic reaction is stopped and the free fatty acids formed are assayed by titration with 0.05 M sodium hydroxide. The results are expressed as a percentage of inhibition of the enzyme by the composition considered, by comparing it with a control test.

CCCCCCCC(=O)NCC(=O)O [octanoylglycine]
% inhibition of elastase ([1]; 0.625% octanoylglycine alone): 5%
inhibitory activity on elastase (in words) ([1]; at the concentrations tested): no inhibitory activity
minimum inhibitory concentration (Propionibacterium acnes): 0.5%
minimum inhibitory concentration (Staphylococcus aureus): 0.25%
minimum inhibitory concentration (Staphylococcus epidermis): 0.20%
percentage of inhibition of lipase (lipase; 1.6% octanoylglycine, 3 hours at 37° C.): 44%

zinc gluconate
minimum inhibitory concentration (Propionibacterium acnes): 1%
minimum inhibitory concentration (Staphylococcus aureus): 0.5%
minimum inhibitory concentration (Staphylococcus epidermis): 10.5%
percentage of inhibition of lipase (lipase; 0.13% solution of zinc gluconate, same operating conditions): 40%
